Consider nine compounds from US20230312528A1, “2-OXO-IMIDAZOLIDINE-4-CARBOXAMIDES AS NAV1.8 INHIBITORS” (Merck Sharp & Dohme LLC, priority 2020, published 2023).

The target in the assay is human NaV1.8 (Homo sapiens (Human), UniProt Q9Y5Y9). Kind of assay: Nav1.8 Qube automated patch-clamp assay. The assay is classed as cell-based. As to conditions: human NaV1.8 stably expressed in HEK 293 cells; automated 384-well patch-clamp; resting or inactivated state not specified. The method, boiled down:
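IC50 values from Hill-equation fits of offline percent inhibition: the 1st pulse gave resting and the 10th pulse inactivated-state inhibition. Stimulus was a 10 s, 1 Hz train to 10 mV (holding −90 mV, −67 mV interpulse) applied at room temperature to HEK293 cells stably expressing human NaV1.8 (Qube).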
On the technique in general: The patch-clamp technique gives a direct electrical read-out from membranes.

Chain of human NaV1.8 (Q9Y5Y9 whole entry): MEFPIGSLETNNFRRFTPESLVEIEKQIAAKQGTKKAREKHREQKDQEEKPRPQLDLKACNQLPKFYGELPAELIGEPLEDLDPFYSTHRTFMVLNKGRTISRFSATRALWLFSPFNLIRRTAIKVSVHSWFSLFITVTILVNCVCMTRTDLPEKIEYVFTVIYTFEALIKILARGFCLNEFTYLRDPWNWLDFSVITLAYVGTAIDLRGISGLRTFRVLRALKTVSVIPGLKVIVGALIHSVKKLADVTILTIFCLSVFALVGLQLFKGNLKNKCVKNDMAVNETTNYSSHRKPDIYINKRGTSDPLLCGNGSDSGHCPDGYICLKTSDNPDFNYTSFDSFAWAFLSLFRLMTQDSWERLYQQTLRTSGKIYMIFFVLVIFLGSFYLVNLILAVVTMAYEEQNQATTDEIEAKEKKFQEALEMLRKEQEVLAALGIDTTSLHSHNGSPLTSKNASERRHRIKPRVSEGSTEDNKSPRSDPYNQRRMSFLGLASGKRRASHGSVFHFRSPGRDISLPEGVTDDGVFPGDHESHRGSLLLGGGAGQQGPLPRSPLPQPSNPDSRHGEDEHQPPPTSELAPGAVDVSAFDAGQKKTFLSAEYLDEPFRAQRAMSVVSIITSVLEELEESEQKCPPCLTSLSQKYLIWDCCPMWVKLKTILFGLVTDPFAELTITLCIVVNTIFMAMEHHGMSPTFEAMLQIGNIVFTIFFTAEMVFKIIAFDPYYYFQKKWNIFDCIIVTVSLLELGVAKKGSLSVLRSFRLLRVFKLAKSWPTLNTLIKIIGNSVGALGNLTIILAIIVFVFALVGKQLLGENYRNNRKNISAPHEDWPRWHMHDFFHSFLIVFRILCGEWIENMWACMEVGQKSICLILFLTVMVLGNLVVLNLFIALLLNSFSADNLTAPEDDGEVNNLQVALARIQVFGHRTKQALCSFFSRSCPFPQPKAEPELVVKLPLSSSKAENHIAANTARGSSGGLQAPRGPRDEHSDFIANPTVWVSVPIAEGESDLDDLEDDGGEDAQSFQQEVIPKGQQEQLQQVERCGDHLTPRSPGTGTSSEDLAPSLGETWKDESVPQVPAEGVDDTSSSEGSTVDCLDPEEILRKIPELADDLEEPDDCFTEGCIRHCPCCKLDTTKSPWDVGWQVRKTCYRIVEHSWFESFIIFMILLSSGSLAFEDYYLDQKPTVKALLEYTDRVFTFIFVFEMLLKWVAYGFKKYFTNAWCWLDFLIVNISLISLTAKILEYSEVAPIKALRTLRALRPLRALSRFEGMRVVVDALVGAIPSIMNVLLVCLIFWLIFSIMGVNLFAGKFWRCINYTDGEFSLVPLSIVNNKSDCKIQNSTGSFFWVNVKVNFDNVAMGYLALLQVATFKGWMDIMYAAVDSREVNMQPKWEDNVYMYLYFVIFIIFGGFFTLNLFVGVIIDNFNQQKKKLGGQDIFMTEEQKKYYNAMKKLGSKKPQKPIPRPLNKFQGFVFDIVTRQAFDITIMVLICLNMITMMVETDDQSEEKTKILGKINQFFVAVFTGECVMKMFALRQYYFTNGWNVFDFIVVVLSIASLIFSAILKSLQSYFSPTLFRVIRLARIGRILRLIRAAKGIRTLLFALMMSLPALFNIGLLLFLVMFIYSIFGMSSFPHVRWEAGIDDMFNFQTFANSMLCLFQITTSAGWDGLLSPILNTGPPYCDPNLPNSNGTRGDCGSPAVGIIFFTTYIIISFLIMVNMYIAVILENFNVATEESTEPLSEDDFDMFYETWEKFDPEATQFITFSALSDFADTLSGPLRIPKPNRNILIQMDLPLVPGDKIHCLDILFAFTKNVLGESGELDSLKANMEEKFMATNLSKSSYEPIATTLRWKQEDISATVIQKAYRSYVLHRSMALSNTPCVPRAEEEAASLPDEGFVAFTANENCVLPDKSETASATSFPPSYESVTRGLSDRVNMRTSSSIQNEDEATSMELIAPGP

Consider `CC1(C)CC(C(NC(=O)[C@@H]2CNC(=O)N2)c2ccc(Cl)cc2)CCN1CC(F)(F)F` (single isomer, unassigned) [Example 91D, (4S)—N—((R or S)(4-chlorophenyl)((R or S)2,2-dimethyl-1-(2,2,2-trifluoroethyl)piperidin-4-yl)methyl)-2-oxoimidazolidine-4-carboxamide], for which the IC50 (commonly the point on the concentration scale where inhibition reaches its midpoint) was 458 nM. This lies in the sub-micromolar range.

`O=C1NC[C@@H](C(=O)NC(c2ccc(Cl)cc2)c2ncc(Cl)c(C(F)(F)F)n2)N1` (stereo partly drawn) [Example 6, (S)—N-((5-chloro-4-(trifluoromethyl)pyrimidin-2-yl)(4-chlorophenyl)methyl)-2-oxoimidazolidine-4-carboxamide]: half-maximal inhibition (IC50) required 28 nM.

With `O=C1NC[C@@H](C(=O)NC(c2ccc(F)c(Cl)c2)c2ccc(F)c(Cl)c2)N1` [Example 61, (S)-N-(bis(3-chloro-4-fluorophenyl)methyl)-2-oxoimidazolidine-4-carboxamide], the IC50 came out at 0.7 nM. This IC50 lies about 40-fold lower than the previous one.

In turn, `CC1(C)CC(C(NC(=O)[C@@H]2CNC(=O)N2)c2ccc(F)c(Cl)c2)C1C(F)(F)F` (stereo partly drawn) [Example 68, (4S)-N-((3-chloro-4-fluorophenyl)(3,3-dimethyl-2-(trifluoromethyl)cyclobutyl)methyl)-2-oxoimidazolidine-4-carboxamide] registered an IC50 of 604 nM.

For `O=C1NC[C@@H](C(=O)NC(c2ccc(F)c(Cl)c2)C2Cc3ccc(F)cc32)N1` (stereo partly drawn) [Example 69, (4S)-N-((3-chloro-4-fluorophenyl)(4-fluorobicyclo[4.2.0]octa-1(6),2,4-trien-7-yl)methyl)-2-oxoimidazolidine-4-carboxamide], the IC50 is 141 nM. This IC50 is about 4.3-fold lower than that of the compound before.

As to `O=C1NC[C@@H](C(=O)NC(c2ccc(F)c(Cl)c2)C2Cc3ccc(Cl)cc32)N1` (stereo partly drawn) [Example 71, (4S)-N-((3-chloro-4-fluorophenyl)(4-chlorobicyclo[4.2.0]-octa-1(6),2,4-trien-7-yl)methyl)-2-oxoimidazolidine-4-carboxamide], half-maximal inhibition (IC50) was put at 44 nM.

With `O=C1NC[C@@H](C(=O)NC(c2ccc(F)c(Cl)c2)c2nc3cccnc3s2)N1` (stereo partly drawn) [Example 72, (4S)-N-((3-chloro-4-fluorophenyl)(thiazolo [5,4-b]pyridin-2-yl)methyl)-2-oxoimidazolidine-4-carboxamide], half-maximal inhibition (IC50) was put at 74 nM. This IC50 lies about 1.7-fold higher than the previous one.

In turn, `Cc1nc(C(F)(F)F)sc1C(NC(=O)[C@@H]1CNC(=O)N1)c1ccc(Cl)cc1` (stereo partly drawn) [Example 76, (4S)-N-((4-chlorophenyl)(4-methyl-2-(trifluoro-methyl)thiazol-5-yl)methyl)-2-oxoimidazolidine-4-carboxamide] showed an IC50 of 35 nM.

For the compound `N#Cc1ccc(C(NC(=O)[C@@H]2CNC(=O)N2)c2ccc(F)c(Cl)c2)nc1` (stereo partly drawn) [Example 86, (4S)-N-[(3-chloro-4-fluorophenyl)(5-cyanopyridin-2-yl)methyl]-2-oxoimidazolidine-4-carboxamide], the half-inhibitory concentration (IC50) was 320 nM.
